The source of these data is patent US20230167127A1, “COMPOUNDS AND THEIR USE IN THE TREATMENT OF BACTERIAL INFECTION” (Hoffmann-La Roche Inc., priority 2020, published 2023).

As a reminder, the IC50 is the concentration at which inhibition is half-maximal.

The structures appear in SMILES notation. Structures can show the parent of a compound that is named as a salt.

This experiment relates to Escherichia coli ATCC 25922. The experiment in a line: 50% growth inhibitory concentration (IC50) determination, Iso-Sensitest broth dilution. The settings on record: Escherichia coli, ATCC25922, 16 h, strain Escherichia coli ATCC 25922; 10-point broth dilution, optical density at 600 nm over 16 h; read-out: Escherichia coli growth inhibition IC50. The class given is cell-based. The method, boiled down:
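Growth was tracked as optical density at 600 nm every 20 minutes for 16 h at 35±2° C. Compounds from DMSO stocks were serially diluted twofold over 10 points (e.g. 50–0.097 μM final) in Iso-Sensitest broth. Inhibition computed in log-phase growth to give IC50.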
(In general: Dilution methods test growth across graded concentrations, often in twofold steps.)
For `O=C1COc2ncc(N3CC4(CCN(CC5Cc6ccnc(Cl)c6C5)CC4)OC3=O)nc2N1` (stereo not shown) [Example 373, 6-[8-[(1-chloro-6,7-dihydro-5H-cyclopenta[c]pyridin-6-yl)methyl]-2-oxo-1-oxa-3,8-diazaspiro[4.5]decan-3-yl]-4H-pyrazino[2,3-b][1,4]oxazin-3-one], the half-inhibitory concentration (IC50) is below 97.7 nM.

As to `NC1c2cccc(Cl)c2CC1CNCCC1CN(c2cnc3c(c2)NC(=O)CO3)C(=O)O1` (racemic) [Example 135, 7-[2-oxo-5-[2-[[rac-1,2-trans-1-amino-4-chloro-2,3-dihydro-1H-inden-2-yl]methylamino]ethyl]-1,3-oxazolidin-3-yl]-1H-pyrido[2,3-b][1,4]oxazin-2-one; formic acid], the half-inhibitory concentration (IC50) was 5800 nM.

Take `Cc1nc(OC[C@H](N)CO)c(C)c2c1CC(CNCCC1CN(c3ccc4c(n3)NC(=O)CO4)C(=O)O1)C2` (stereo partly drawn) [Example 234, 6-[5-[2-[[3-[(2R)-2-Amino-3-hydroxypropoxy]-1,4-dimethyl-6,7-dihydro-5H-cyclopenta[c]pyridin-6-yl]methylamino]ethyl]-2-oxo-1,3-oxazolidin-3-yl]-4H-pyrido[3,2-b][1,4]oxazin-3-one]: the IC50 was found to be 212 nM.

As for `CC(C)(N)COc1cc(F)c2c(c1F)CC(CNCCC1CN(c3cnc4c(n3)NC(=O)CO4)C(=O)O1)C2` (stereo not shown) [Example 411, 6-[5-[2-[[5-(2-amino-2-methylpropoxy)-4,7-difluoro-2,3-dihydro-1H-inden-2-yl]methylamino]ethyl]-2-oxo-1,3-oxazolidin-3-yl]-4H-pyrazino[2,3-b][1,4]oxazin-3-one; formic acid], the IC50 was below 97.7 nM.

`O=C1COc2ccc(N3C(=O)OC4CC(NCCC5Cc6cccc(Cl)c6C5)CCC43)nc2N1` (racemic) [Example 32, 6-[rac-3a,7a-trans-6,7a-cis-6-[2-(4-chloro-2,3-dihydro-1H-inden-2-yl)ethylamino]-2-oxo-3a,4,5,6,7,7a-hexahydro-1,3-benzoxazol-3-yl]-4H-pyrido[3.2-b][1,4]oxazin-3-one]: the IC50 turned out to be 710 nM.

Take `Cc1nc(OCc2cc[nH]n2)c(F)c2c1CC(CNCCC1CN(c3cnc4c(n3)NC(=O)CO4)C(=O)O1)C2` (stereo not shown) [Example 415]: the IC50 is 221 nM.

Consider `N#Cc1c(OCC2(N)CC2)ccc2c1CC(CNCCC1CN(c3ccc4c(n3)NC(=O)CO4)C(=O)O1)C2` (stereo not shown) [Example 124, 5-[(1-aminocyclopropyl)methoxy]-2-[[2-[2-oxo-3-(3-oxo-4H-pyrido[3,2-b][1,4]oxazin-6-yl)-1,3-oxazolidin-5-yl]ethylamino]methyl]-2,3-dihydro-1H-indene-4-carbonitrile hydrochloride], for which the IC50 was below 97.7 nM.

On to `Cc1ncc(F)c2c1CC(NCC(O)CC1CN(c3cnc4c(n3)NC(=O)CO4)C(=O)O1)C2` (single isomer, unassigned; isomer a) [Example 313, 6-[2-Oxo-5-[3-[(4-fluoro-1-methyl-6,7-dihydro-5H-cyclopenta[c]pyridin-6-yl)amino]-2-hydroxypropyl]-1,3-oxazolidin-3-yl]-4H-pyrazino[2,3-b][1,4]oxazin-3-one; formic acid, Isomer A], for which the IC50 worked out at 1900 nM.

On to `Cc1ncc(F)c2c1CC(CN[C@H]1C[C@H](C3CN(c4cnc5c(n4)NC(=O)CO5)C(=O)O3)C1)C2` (stereo partly drawn) [Example 361, 6-[5-[trans-3-[(4-fluoro-1-methyl-6,7-dihydro-5H-cyclopenta[c]pyridin-6-yl)methylamino]cyclobutyl]-2-oxo-1,3-oxazolidin-3-yl]-4H-pyrazino[2,3-b][1,4]oxazin-3-one], for which the IC50 came out at 336 nM.

As for `N#Cc1c(OCC2CCCN2)ccc2c1CC(CNCCC1CN(c3ccc4c(n3)NC(=O)CO4)C(=O)O1)C2` (stereo not shown) [Example 141, 2-[[2-[2-oxo-3-(3-oxo-4H-pyrido[3,2-b][1,4]oxazin-6-yl)-1,3-oxazolidin-5-yl]ethylamino]methyl]-5-(pyrrolidin-2-ylmethoxy)-2,3-dihydro-1H-indene-4-carbonitrile; formic acid], the 50% inhibitory concentration (IC50) is 186 nM.

On to `Cc1ncc(Cl)c2c1CC(CNCCC1CN(c3ccc4c(n3)NC(=O)CS4)C(=O)O1)C2N` (racemic) [Example 264, 3-(3-Oxo-4H-pyrido[3,2-b][1,4]thiazin-6-yl)-5-[2-[[rac-5,6-trans-5-amino-4-chloro-1-methyl-6,7-dihydro-5H-cyclopenta[c]pyridin-6-yl]methylamino]ethyl]-1,3-oxazolidin-2-one], for which the 50% inhibitory concentration (IC50) was below 97.7 nM.

On to `NC1c2cccc(F)c2CC1CNCCC1CN(c2ccc3c(n2)NC(=O)CS3)C(=O)O1` (racemic) [Example 165, 5-[2-[(rac-1,2-trans-1-amino-4-fluoro-2,3-dihydro-1H-inden-2-yl)methylamino]ethyl]-3-(3-oxo-4H-pyrido[3,2-b][1,4]thiazin-6-yl)-1,3-oxazolidin-2-one; formic acid], for which the IC50 is below 97.7 nM.

Turning to `CN(C)CCOc1cc(F)c2c(c1)CC(CNCCC1CN(c3cnc4c(n3)NC(=O)CO4)C(=O)O1)C2` (stereo not shown) [Example 272, 6-[5-[2-[[6-[2-(Dimethylamino)ethoxy]-4-fluoro-2,3-dihydro-H-inden-2-yl]methylamino]ethyl]-2-oxo-1,3-oxazolidin-3-yl]-4H-pyrazino[2,3-b][1,4]oxazin-3-one; formic acid], the IC50 was below 97.7 nM.

As for `CCn1cc(C(=O)O)c(=O)c2cc(F)c3c(c21)CC(CNCCC1CN(c2ccc4c(n2)NC(=O)CO4)C(=O)O1)C3` (stereo not shown) [Example 239, 1-Ethyl-6-fluoro-4-oxo-8-[[2-[2-oxo-3-(3-oxo-4H-pyrido[3,2-b][1,4]oxazin-6-yl)-1,3-oxazolidin-5-yl]ethylamino]methyl]-8,9-dihydro-7H-cyclopenta[h]quinoline-3-carboxylic acid], the IC50 was below 97.7 nM.

For `Cc1ncnc2c1CC(CNCCC1CN(c3ccc4c(n3)NC(=O)CO4)C(=O)O1)C2` (stereo not shown) [Example 421, 6-[5-[2-[(4-methyl-6,7-dihydro-5H-cyclopenta[d]pyrimidin-6-yl)methylamino]ethyl]-2-oxo-1,3-oxazolidin-3-yl]-4H-pyrido[3,2-b][1,4] oxazin-3-one], the concentration for half-maximal inhibition (IC50) worked out at 618 nM.

As for `CC(C)(N)COc1cc(C#N)c2c(c1)CC(CNCCC1CN(c3cnc4c(n3)NC(=O)CO4)C(=O)O1)C2` (stereo not shown) [Example 204, 6-(2-amino-2-methylpropoxy)-2-(((2-(2-oxo-3-(3-oxo-3,4-dihydro-2H-pyrazino[2,3-b][1,4]oxazin-6-yl)oxazolidin-5-yl)ethyl)amino)methyl)-2,3-dihydro-1H-indene-4-carbonitrile], the IC50 was below 97.7 nM.

As to `O=C1COc2ncc(N3CC(CCNCC4Cc5cc(OCCn6cncn6)cc(F)c5C4)OC3=O)nc2N1` (stereo not shown) [Example 296, 6-[5-[2-[[4-fluoro-6-[2-(l,2,4-triazol-1-yl)ethoxy]-2,3-dihydro-1H-inden-2-yl]methylamino]ethyl]-2-oxo-1,3-oxazolidin-3-yl]-4H-pyrazino[2,3-b][1,4]oxazin-3-one; formic acid], the IC50 amounted to 381 nM.

For `NC1c2cccc(Cl)c2CC1NCCCC1CN(c2ccc3c(n2)NC(=O)CO3)C(=O)O1` (racemic) [Example 244, 6-[2-oxo-5-[3-[[rac-1,2-trans-1-amino-4-chloro-2,3-dihydro-1H-inden-2-yl]amino]propyl]-1,3-oxazolidin-3-yl]-4H-pyrido[3,2-b][1,4]oxazin-3-one], the IC50 was below 97.7 nM.

Regarding `O=C1COc2ncc(N3CC(CCNCC4Cc5cc(OCCn6ncnn6)cc(F)c5C4)OC3=O)nc2N1` (stereo not shown) [Example 348, 6-[5-[2-[[4-fluoro-6-[2-(tetrazol-2-yl)ethoxy]-2,3-dihydro-1H-inden-2-yl]methylamino]ethyl]-2-oxo-1,3-oxazolidin-3-yl]-4H-pyrazino[2,3-b][1,4]oxazin-3-one; formic acid], the 50% inhibitory concentration (IC50) was 317 nM.

Consider `N[C@@H]1c2cccc(Cl)c2C[C@H]1CN1CCC2(CC1)CN(c1cnc3c(n1)NC(=O)CO3)C(=O)O2` (racemic) [Example 259, 6-[2-Oxo-8-[[rac-1,2-trans-1-amino-4-chloro-2,3-dihydro-1H-inden-2-yl]methyl]-1-oxa-3,8-diazaspiro[4.5]decan-3-yl]-4H-pyrazino[2,3-b][1,4]oxazin-3-one; formic acid], for which the IC50 is below 97.7 nM.

Take `N#Cc1cccc2c1CC(CNCCC1CN(c3ccc4c(n3)NC(=O)CS4)C(=O)O1)C2N` (racemic) [Example 247, rac-1,2-trans-1-amino-2-[[2-[2-oxo-3-(3-oxo-4H-pyrido[3,2-b][1,4]thiazin-6-yl)-1,3-oxazolidin-5-yl]ethylamino]methyl]-2,3-dihydro-1H-indene-4-carbonitrile]: the IC50 is below 97.7 nM.

For `N#Cc1c(OCC2CNC2)ccc2c1CC(CNCCC1CN(c3ccc4c(n3)NC(=O)CO4)C(=O)O1)C2` (stereo not shown) [Example 129, 5-(azetidin-3-ylmethoxy)-2-[[2-[2-oxo-3-(3-oxo-4H-pyrido[3,2-b][1,4]oxazin-6-yl)-1,3-oxazolidin-5-yl]ethylamino]methyl]-2,3-dihydro-1H-indene-4-carbonitrile; formic acid], the IC50 stood at 692 nM.

In the case of `Cc1ncc(F)c2c1CC(CCNCC1(CCO)CN(c3ccc4c(n3)NC(=O)CO4)C(=O)O1)C2` (stereo not shown) [Example 278, 6-[5-[[2-(4-fluoro-1-methyl-6,7-dihydro-5H-cyclopenta[c]pyridin-6-yl)ethylamino]methyl]-5-(2-hydroxyethyl)-2-oxo-1,3-oxazolidin-3-yl]-4H-pyrido[3,2-b][1,4]oxazin-3-one], the half-inhibitory concentration (IC50) is 1890 nM.

`NC1c2cccc(Cl)c2CC1NCCCC1CN(c2cnc3c(n2)NC(=O)CO3)C(=O)O1` (racemic) [Example 245, 6-[2-oxo-5-[3-[[rac-1,2-trans-1-amino-4-chloro-2,3-dihydro-1H-inden-2-yl]amino]propyl]-1,3-oxazolidin-3-yl]-4H-pyrazino[2,3-b][1,4]oxazin-3-one]: the IC50 worked out at 119 nM.

On to `COCC(N)COc1cc(F)c2c(c1)CC(CNCCC1CN(c3ccc4c(n3)NC(=O)CO4)C(=O)O1)C2` (stereo not shown) [Example 248, 6-[5-[2-[[6-(2-amino-3-methoxypropoxy)-4-fluoro-2,3-dihydro-1H-inden-2-yl]methylamino]ethyl]-2-oxo-1,3-oxazolidin-3-yl]-4H-pyrido[3,2-b][1,4]oxazin-3-one], for which the half-maximal inhibitory concentration (IC50) is below 97.7 nM.
